# Target: ABL2 (human) (UniProt P42684)
# Assay: radiometric filter-binding kinase assay, Kinase HotSpot
# Settings: compound 0.5 µM; ATP 10 µM
row,SMILES,residual activity
1,O=C(Nc1ccc(Cl)cc1)c1ccccc1NCc1ccncc1,93.4%
2,CC(C)n1cnc2c(Nc3cccc(Cl)c3)nc(NCCO)nc21,60.7%
3,COc1cc2nccc(Oc3ccc(NC(=S)NC(=O)c4ccccc4C)cc3)c2cc1OC,74.1%
4,NC(=O)c1ccc(N(C(N)=O)c2c(F)cccc2F)nc1-c1ccc(F)cc1F,100%
5,O=c1cc(-c2cccc3c2Sc2ccccc2S3)oc(N2CCOCC2)c1,92%

# Target: ADRBK1 (human) (UniProt P25098)
# Assay: as above
# Settings: compound 0.5 µM; ATP 10 µM
row,SMILES,residual activity
1,O=C(Nc1ccc(Cl)cc1)c1ccccc1NCc1ccncc1,98.2%
2,CC(C)n1cnc2c(Nc3cccc(Cl)c3)nc(NCCO)nc21,96%
3,COc1cc2nccc(Oc3ccc(NC(=S)NC(=O)c4ccccc4C)cc3)c2cc1OC,95.6%
4,NC(=O)c1ccc(N(C(N)=O)c2c(F)cccc2F)nc1-c1ccc(F)cc1F,99%
5,O=c1cc(-c2cccc3c2Sc2ccccc2S3)oc(N2CCOCC2)c1,79%

# Target: AKT2 (human) (UniProt P31751)
# Assay: as above
# Settings: compound 0.5 µM; ATP 10 µM
# Chain of AKT2 (human) (P31751 whole entry, looked up): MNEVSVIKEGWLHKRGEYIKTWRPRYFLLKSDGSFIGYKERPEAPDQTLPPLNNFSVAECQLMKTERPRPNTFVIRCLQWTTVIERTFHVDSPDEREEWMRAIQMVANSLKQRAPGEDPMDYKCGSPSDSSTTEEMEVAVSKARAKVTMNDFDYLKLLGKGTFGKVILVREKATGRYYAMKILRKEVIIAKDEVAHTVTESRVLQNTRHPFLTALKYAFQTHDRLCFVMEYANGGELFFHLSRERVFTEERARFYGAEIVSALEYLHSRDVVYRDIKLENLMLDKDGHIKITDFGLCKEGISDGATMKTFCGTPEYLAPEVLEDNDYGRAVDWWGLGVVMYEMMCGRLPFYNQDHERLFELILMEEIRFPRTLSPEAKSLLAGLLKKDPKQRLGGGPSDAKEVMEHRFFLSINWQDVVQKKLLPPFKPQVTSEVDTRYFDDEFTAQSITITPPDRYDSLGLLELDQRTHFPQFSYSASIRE
row,SMILES,residual activity
1,O=C(Nc1ccc(Cl)cc1)c1ccccc1NCc1ccncc1,95.2%
2,CC(C)n1cnc2c(Nc3cccc(Cl)c3)nc(NCCO)nc21,92.4%
3,COc1cc2nccc(Oc3ccc(NC(=S)NC(=O)c4ccccc4C)cc3)c2cc1OC,102%
4,NC(=O)c1ccc(N(C(N)=O)c2c(F)cccc2F)nc1-c1ccc(F)cc1F,118%
5,O=c1cc(-c2cccc3c2Sc2ccccc2S3)oc(N2CCOCC2)c1,96%

# Target: AXL (human) (UniProt P30530)
# Assay: as above
# Settings: compound 0.5 µM; ATP 10 µM
row,SMILES,residual activity
1,O=C(Nc1ccc(Cl)cc1)c1ccccc1NCc1ccncc1,98.1%
2,CC(C)n1cnc2c(Nc3cccc(Cl)c3)nc(NCCO)nc21,91.3%
3,COc1cc2nccc(Oc3ccc(NC(=S)NC(=O)c4ccccc4C)cc3)c2cc1OC,80.4%
4,NC(=O)c1ccc(N(C(N)=O)c2c(F)cccc2F)nc1-c1ccc(F)cc1F,101%
5,O=c1cc(-c2cccc3c2Sc2ccccc2S3)oc(N2CCOCC2)c1,106%

# Target: BMX (human) (UniProt P51813)
# Assay: as above
# Settings: compound 0.5 µM; ATP 10 µM
# Chain of BMX (human) (P51813 whole entry, looked up): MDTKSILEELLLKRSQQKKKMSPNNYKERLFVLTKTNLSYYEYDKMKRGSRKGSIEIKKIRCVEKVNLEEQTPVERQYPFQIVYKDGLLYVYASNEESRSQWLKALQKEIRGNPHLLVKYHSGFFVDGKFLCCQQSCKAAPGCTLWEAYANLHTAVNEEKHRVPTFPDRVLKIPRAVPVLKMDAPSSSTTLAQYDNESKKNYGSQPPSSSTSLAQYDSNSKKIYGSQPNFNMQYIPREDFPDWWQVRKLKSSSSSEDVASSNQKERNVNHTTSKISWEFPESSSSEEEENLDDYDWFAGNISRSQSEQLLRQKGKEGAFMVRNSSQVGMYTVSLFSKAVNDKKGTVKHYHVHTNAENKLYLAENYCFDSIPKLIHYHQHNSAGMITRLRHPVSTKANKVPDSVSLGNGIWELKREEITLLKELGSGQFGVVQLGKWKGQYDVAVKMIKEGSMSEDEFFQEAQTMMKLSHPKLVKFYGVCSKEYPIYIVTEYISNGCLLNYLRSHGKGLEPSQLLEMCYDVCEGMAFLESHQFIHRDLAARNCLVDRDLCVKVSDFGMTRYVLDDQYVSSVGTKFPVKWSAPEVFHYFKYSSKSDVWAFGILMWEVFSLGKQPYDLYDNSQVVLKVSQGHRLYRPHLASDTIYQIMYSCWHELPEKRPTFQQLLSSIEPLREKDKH
row,SMILES,residual activity
1,O=C(Nc1ccc(Cl)cc1)c1ccccc1NCc1ccncc1,90.5%
2,CC(C)n1cnc2c(Nc3cccc(Cl)c3)nc(NCCO)nc21,92.5%
3,COc1cc2nccc(Oc3ccc(NC(=S)NC(=O)c4ccccc4C)cc3)c2cc1OC,30.6%
4,NC(=O)c1ccc(N(C(N)=O)c2c(F)cccc2F)nc1-c1ccc(F)cc1F,108%
5,O=c1cc(-c2cccc3c2Sc2ccccc2S3)oc(N2CCOCC2)c1,112%

# Target: CAMK1D (human) (UniProt Q8IU85)
# Assay: as above
# Settings: compound 0.5 µM; ATP 10 µM
# Chain of CAMK1D (human) (Q8IU85 whole entry, looked up): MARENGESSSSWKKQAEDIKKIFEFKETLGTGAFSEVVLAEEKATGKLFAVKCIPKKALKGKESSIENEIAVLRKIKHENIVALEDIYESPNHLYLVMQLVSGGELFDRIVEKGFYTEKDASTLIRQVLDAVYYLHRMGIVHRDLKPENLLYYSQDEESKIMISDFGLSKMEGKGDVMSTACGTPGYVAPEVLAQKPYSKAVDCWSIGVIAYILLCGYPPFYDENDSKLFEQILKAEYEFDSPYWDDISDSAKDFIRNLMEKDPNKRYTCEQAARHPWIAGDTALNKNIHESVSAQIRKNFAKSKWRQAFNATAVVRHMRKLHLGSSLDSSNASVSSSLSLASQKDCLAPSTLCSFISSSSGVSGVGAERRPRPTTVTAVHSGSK
row,SMILES,residual activity
1,O=C(Nc1ccc(Cl)cc1)c1ccccc1NCc1ccncc1,95.3%
2,CC(C)n1cnc2c(Nc3cccc(Cl)c3)nc(NCCO)nc21,98.1%
3,COc1cc2nccc(Oc3ccc(NC(=S)NC(=O)c4ccccc4C)cc3)c2cc1OC,72.5%
4,NC(=O)c1ccc(N(C(N)=O)c2c(F)cccc2F)nc1-c1ccc(F)cc1F,114%
5,O=c1cc(-c2cccc3c2Sc2ccccc2S3)oc(N2CCOCC2)c1,106%

# Target: CDC42BPA (human) (UniProt Q5VT25)
# Assay: as above
# Settings: compound 0.5 µM; ATP 10 µM
row,SMILES,residual activity
1,O=C(Nc1ccc(Cl)cc1)c1ccccc1NCc1ccncc1,90.5%
2,CC(C)n1cnc2c(Nc3cccc(Cl)c3)nc(NCCO)nc21,83.9%
3,COc1cc2nccc(Oc3ccc(NC(=S)NC(=O)c4ccccc4C)cc3)c2cc1OC,93.9%
4,NC(=O)c1ccc(N(C(N)=O)c2c(F)cccc2F)nc1-c1ccc(F)cc1F,93.8%
5,O=c1cc(-c2cccc3c2Sc2ccccc2S3)oc(N2CCOCC2)c1,106%

# Target: CDK2 CCNE1 (human) (UniProt P24941+P24864)
# Assay: as above
# Settings: compound 0.5 µM; ATP 10 µM
row,SMILES,residual activity
1,O=C(Nc1ccc(Cl)cc1)c1ccccc1NCc1ccncc1,94.3%
2,CC(C)n1cnc2c(Nc3cccc(Cl)c3)nc(NCCO)nc21,37.2%
3,COc1cc2nccc(Oc3ccc(NC(=S)NC(=O)c4ccccc4C)cc3)c2cc1OC,96.7%
4,NC(=O)c1ccc(N(C(N)=O)c2c(F)cccc2F)nc1-c1ccc(F)cc1F,93.1%
5,O=c1cc(-c2cccc3c2Sc2ccccc2S3)oc(N2CCOCC2)c1,84.6%

# Target: CDK4 CCND3 (human) (UniProt P30281+P11802)
# Assay: as above
# Settings: compound 0.5 µM; ATP 10 µM
row,SMILES,residual activity
1,O=C(Nc1ccc(Cl)cc1)c1ccccc1NCc1ccncc1,94.2%
2,CC(C)n1cnc2c(Nc3cccc(Cl)c3)nc(NCCO)nc21,93.3%
3,COc1cc2nccc(Oc3ccc(NC(=S)NC(=O)c4ccccc4C)cc3)c2cc1OC,93.4%
4,NC(=O)c1ccc(N(C(N)=O)c2c(F)cccc2F)nc1-c1ccc(F)cc1F,98.4%
5,O=c1cc(-c2cccc3c2Sc2ccccc2S3)oc(N2CCOCC2)c1,99.2%

# Target: CDK7 CCNH MNAT1 (human) (UniProt P50613+P51948+P51946)
# Assay: as above
# Settings: compound 0.5 µM; ATP 10 µM
row,SMILES,residual activity
1,O=C(Nc1ccc(Cl)cc1)c1ccccc1NCc1ccncc1,95.1%
2,CC(C)n1cnc2c(Nc3cccc(Cl)c3)nc(NCCO)nc21,78.5%
3,COc1cc2nccc(Oc3ccc(NC(=S)NC(=O)c4ccccc4C)cc3)c2cc1OC,97.7%
4,NC(=O)c1ccc(N(C(N)=O)c2c(F)cccc2F)nc1-c1ccc(F)cc1F,102%
5,O=c1cc(-c2cccc3c2Sc2ccccc2S3)oc(N2CCOCC2)c1,96.5%

# Target: CSNK1D (human) (UniProt P48730)
# Assay: as above
# Settings: compound 0.5 µM; ATP 10 µM
row,SMILES,residual activity
1,O=C(Nc1ccc(Cl)cc1)c1ccccc1NCc1ccncc1,98.1%
2,CC(C)n1cnc2c(Nc3cccc(Cl)c3)nc(NCCO)nc21,48.5%
3,COc1cc2nccc(Oc3ccc(NC(=S)NC(=O)c4ccccc4C)cc3)c2cc1OC,212%
4,NC(=O)c1ccc(N(C(N)=O)c2c(F)cccc2F)nc1-c1ccc(F)cc1F,89.8%
5,O=c1cc(-c2cccc3c2Sc2ccccc2S3)oc(N2CCOCC2)c1,106%

# Target: CSNK1G2 (human) (UniProt P78368)
# Assay: as above
# Settings: compound 0.5 µM; ATP 10 µM
# Chain of CSNK1G2 (human) (P78368 whole entry, looked up): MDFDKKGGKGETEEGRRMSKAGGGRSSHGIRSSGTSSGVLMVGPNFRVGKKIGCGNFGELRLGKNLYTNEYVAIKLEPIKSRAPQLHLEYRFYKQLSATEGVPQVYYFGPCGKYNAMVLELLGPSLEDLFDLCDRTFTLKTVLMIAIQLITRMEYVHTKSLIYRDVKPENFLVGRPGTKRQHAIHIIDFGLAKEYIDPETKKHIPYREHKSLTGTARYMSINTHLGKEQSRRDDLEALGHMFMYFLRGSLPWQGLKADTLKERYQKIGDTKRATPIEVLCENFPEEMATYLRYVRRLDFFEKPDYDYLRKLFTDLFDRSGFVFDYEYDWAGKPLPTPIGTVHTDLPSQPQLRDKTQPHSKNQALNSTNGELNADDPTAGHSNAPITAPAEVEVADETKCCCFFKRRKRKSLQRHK
row,SMILES,residual activity
1,O=C(Nc1ccc(Cl)cc1)c1ccccc1NCc1ccncc1,88.3%
2,CC(C)n1cnc2c(Nc3cccc(Cl)c3)nc(NCCO)nc21,20.6%
3,COc1cc2nccc(Oc3ccc(NC(=S)NC(=O)c4ccccc4C)cc3)c2cc1OC,106%
4,NC(=O)c1ccc(N(C(N)=O)c2c(F)cccc2F)nc1-c1ccc(F)cc1F,99.6%
5,O=c1cc(-c2cccc3c2Sc2ccccc2S3)oc(N2CCOCC2)c1,93.3%

# Target: CSNK2A1 (human) (UniProt P68400)
# Assay: as above
# Settings: compound 0.5 µM; ATP 10 µM
row,SMILES,residual activity
1,O=C(Nc1ccc(Cl)cc1)c1ccccc1NCc1ccncc1,91.1%
2,CC(C)n1cnc2c(Nc3cccc(Cl)c3)nc(NCCO)nc21,83.8%
3,COc1cc2nccc(Oc3ccc(NC(=S)NC(=O)c4ccccc4C)cc3)c2cc1OC,98.9%
4,NC(=O)c1ccc(N(C(N)=O)c2c(F)cccc2F)nc1-c1ccc(F)cc1F,111%
5,O=c1cc(-c2cccc3c2Sc2ccccc2S3)oc(N2CCOCC2)c1,97.4%

# Target: DAPK2 (human) (UniProt Q9UIK4)
# Assay: as above
# Settings: compound 0.5 µM; ATP 10 µM
# Chain of DAPK2 (human) (Q9UIK4 whole entry, looked up): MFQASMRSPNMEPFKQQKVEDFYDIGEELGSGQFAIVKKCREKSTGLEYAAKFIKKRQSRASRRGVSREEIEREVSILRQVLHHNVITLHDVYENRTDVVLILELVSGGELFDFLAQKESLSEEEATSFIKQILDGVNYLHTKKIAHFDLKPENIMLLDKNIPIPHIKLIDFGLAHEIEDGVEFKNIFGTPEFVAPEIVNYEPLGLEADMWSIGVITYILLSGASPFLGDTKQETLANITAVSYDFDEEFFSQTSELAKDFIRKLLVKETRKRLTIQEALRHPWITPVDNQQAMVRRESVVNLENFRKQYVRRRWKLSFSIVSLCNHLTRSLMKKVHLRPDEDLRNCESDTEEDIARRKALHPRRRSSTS
row,SMILES,residual activity
1,O=C(Nc1ccc(Cl)cc1)c1ccccc1NCc1ccncc1,98.4%
2,CC(C)n1cnc2c(Nc3cccc(Cl)c3)nc(NCCO)nc21,92.8%
3,COc1cc2nccc(Oc3ccc(NC(=S)NC(=O)c4ccccc4C)cc3)c2cc1OC,78.7%
4,NC(=O)c1ccc(N(C(N)=O)c2c(F)cccc2F)nc1-c1ccc(F)cc1F,86.8%
5,O=c1cc(-c2cccc3c2Sc2ccccc2S3)oc(N2CCOCC2)c1,98.8%

# Target: DSTYK (human) (UniProt Q6XUX3)
# Assay: as above
# Settings: compound 0.5 µM; ATP 10 µM
# Chain of DSTYK (human) (Q6XUX3 whole entry, looked up): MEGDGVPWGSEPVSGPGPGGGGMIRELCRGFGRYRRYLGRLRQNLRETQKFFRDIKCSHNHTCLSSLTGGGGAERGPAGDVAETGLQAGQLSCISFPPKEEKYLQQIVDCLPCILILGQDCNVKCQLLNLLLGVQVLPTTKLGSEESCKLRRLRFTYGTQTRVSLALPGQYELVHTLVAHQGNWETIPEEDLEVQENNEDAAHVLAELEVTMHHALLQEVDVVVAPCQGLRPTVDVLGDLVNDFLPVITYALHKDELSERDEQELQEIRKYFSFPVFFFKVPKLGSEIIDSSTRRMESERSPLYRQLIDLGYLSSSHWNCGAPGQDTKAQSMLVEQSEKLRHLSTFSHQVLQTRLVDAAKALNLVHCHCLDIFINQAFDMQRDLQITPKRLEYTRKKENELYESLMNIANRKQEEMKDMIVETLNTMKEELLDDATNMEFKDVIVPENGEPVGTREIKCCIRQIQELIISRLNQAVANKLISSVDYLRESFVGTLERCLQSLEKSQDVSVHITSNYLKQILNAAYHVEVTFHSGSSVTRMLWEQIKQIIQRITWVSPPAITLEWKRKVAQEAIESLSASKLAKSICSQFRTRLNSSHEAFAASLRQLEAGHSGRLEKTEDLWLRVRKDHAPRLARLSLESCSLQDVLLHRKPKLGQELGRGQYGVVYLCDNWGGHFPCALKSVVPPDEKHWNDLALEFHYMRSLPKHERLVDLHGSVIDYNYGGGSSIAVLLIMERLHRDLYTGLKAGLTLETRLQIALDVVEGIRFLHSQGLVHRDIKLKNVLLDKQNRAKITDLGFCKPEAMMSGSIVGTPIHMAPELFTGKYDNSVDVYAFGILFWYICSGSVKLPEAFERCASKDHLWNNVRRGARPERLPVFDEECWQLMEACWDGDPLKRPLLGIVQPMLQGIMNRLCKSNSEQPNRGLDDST
row,SMILES,residual activity
1,O=C(Nc1ccc(Cl)cc1)c1ccccc1NCc1ccncc1,94.7%
2,CC(C)n1cnc2c(Nc3cccc(Cl)c3)nc(NCCO)nc21,97%
3,COc1cc2nccc(Oc3ccc(NC(=S)NC(=O)c4ccccc4C)cc3)c2cc1OC,112%
4,NC(=O)c1ccc(N(C(N)=O)c2c(F)cccc2F)nc1-c1ccc(F)cc1F,101%
5,O=c1cc(-c2cccc3c2Sc2ccccc2S3)oc(N2CCOCC2)c1,93.4%

# Target: DYRK2 (human) (UniProt Q92630)
# Assay: as above
# Settings: compound 0.5 µM; ATP 10 µM
# Chain of DYRK2 (human) (Q92630 whole entry, looked up): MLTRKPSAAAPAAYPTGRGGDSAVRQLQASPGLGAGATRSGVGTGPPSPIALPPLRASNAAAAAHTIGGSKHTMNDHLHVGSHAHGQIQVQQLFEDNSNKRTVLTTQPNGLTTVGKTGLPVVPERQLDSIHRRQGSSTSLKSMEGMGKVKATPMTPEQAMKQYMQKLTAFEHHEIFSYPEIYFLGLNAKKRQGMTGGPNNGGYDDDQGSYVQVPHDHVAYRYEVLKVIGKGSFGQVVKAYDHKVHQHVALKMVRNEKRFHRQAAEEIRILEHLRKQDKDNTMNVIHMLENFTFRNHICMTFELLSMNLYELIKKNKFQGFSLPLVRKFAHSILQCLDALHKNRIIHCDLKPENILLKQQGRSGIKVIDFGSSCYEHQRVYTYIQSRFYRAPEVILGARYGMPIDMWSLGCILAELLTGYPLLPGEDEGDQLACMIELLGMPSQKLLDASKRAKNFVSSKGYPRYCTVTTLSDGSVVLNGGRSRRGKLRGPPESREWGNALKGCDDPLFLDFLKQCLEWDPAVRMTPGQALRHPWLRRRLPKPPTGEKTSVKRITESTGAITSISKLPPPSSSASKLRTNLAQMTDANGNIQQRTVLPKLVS
row,SMILES,residual activity
1,O=C(Nc1ccc(Cl)cc1)c1ccccc1NCc1ccncc1,96%
2,CC(C)n1cnc2c(Nc3cccc(Cl)c3)nc(NCCO)nc21,93.9%
3,COc1cc2nccc(Oc3ccc(NC(=S)NC(=O)c4ccccc4C)cc3)c2cc1OC,87.5%
4,NC(=O)c1ccc(N(C(N)=O)c2c(F)cccc2F)nc1-c1ccc(F)cc1F,102%
5,O=c1cc(-c2cccc3c2Sc2ccccc2S3)oc(N2CCOCC2)c1,104%

# Target: EPHA3 (human) (UniProt P29320)
# Assay: as above
# Settings: compound 0.5 µM; ATP 10 µM
# Chain of EPHA3 (human) (P29320 whole entry, looked up): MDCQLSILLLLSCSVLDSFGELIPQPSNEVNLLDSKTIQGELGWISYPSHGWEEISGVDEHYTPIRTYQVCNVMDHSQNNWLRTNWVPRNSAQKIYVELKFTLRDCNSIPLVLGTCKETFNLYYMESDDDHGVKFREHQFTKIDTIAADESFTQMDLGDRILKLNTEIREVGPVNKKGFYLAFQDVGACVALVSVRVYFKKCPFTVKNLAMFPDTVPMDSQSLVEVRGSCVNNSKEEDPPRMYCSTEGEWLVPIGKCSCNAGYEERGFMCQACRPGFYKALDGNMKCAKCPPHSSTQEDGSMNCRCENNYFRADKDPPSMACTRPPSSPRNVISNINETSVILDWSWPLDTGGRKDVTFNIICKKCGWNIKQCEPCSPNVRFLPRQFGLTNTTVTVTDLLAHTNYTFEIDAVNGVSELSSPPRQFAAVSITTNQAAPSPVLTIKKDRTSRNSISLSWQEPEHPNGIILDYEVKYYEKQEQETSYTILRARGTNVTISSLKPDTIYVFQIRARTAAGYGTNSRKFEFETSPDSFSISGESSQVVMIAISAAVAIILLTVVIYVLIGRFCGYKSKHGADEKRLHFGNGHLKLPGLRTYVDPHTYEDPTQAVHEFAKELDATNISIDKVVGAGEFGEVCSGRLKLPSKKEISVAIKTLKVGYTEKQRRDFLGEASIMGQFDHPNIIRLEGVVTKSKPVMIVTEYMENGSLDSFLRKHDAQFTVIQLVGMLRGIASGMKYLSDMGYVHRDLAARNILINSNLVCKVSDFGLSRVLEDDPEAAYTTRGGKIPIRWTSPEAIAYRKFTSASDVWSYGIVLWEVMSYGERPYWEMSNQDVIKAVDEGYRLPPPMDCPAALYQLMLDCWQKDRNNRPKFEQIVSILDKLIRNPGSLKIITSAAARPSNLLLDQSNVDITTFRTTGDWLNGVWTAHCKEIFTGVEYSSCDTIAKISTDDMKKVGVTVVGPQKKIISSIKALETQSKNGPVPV
row,SMILES,residual activity
1,O=C(Nc1ccc(Cl)cc1)c1ccccc1NCc1ccncc1,92.1%
2,CC(C)n1cnc2c(Nc3cccc(Cl)c3)nc(NCCO)nc21,90.3%
3,COc1cc2nccc(Oc3ccc(NC(=S)NC(=O)c4ccccc4C)cc3)c2cc1OC,105%
4,NC(=O)c1ccc(N(C(N)=O)c2c(F)cccc2F)nc1-c1ccc(F)cc1F,97%
5,O=c1cc(-c2cccc3c2Sc2ccccc2S3)oc(N2CCOCC2)c1,119%

# Target: EPHA5 (human) (UniProt P54756)
# Assay: as above
# Settings: compound 0.5 µM; ATP 10 µM
row,SMILES,residual activity
1,O=C(Nc1ccc(Cl)cc1)c1ccccc1NCc1ccncc1,82.1%
2,CC(C)n1cnc2c(Nc3cccc(Cl)c3)nc(NCCO)nc21,91.7%
3,COc1cc2nccc(Oc3ccc(NC(=S)NC(=O)c4ccccc4C)cc3)c2cc1OC,91%
4,NC(=O)c1ccc(N(C(N)=O)c2c(F)cccc2F)nc1-c1ccc(F)cc1F,105%
5,O=c1cc(-c2cccc3c2Sc2ccccc2S3)oc(N2CCOCC2)c1,114%

# Target: FGFR3 (human) (UniProt P22607)
# Assay: as above
# Settings: compound 0.5 µM; ATP 10 µM
row,SMILES,residual activity
1,O=C(Nc1ccc(Cl)cc1)c1ccccc1NCc1ccncc1,92.2%
2,CC(C)n1cnc2c(Nc3cccc(Cl)c3)nc(NCCO)nc21,95.1%
3,COc1cc2nccc(Oc3ccc(NC(=S)NC(=O)c4ccccc4C)cc3)c2cc1OC,88.8%
4,NC(=O)c1ccc(N(C(N)=O)c2c(F)cccc2F)nc1-c1ccc(F)cc1F,90.2%
5,O=c1cc(-c2cccc3c2Sc2ccccc2S3)oc(N2CCOCC2)c1,94.7%

# Target: FLT1 (human) (UniProt P17948)
# Assay: as above
# Settings: compound 0.5 µM; ATP 10 µM
row,SMILES,residual activity
1,O=C(Nc1ccc(Cl)cc1)c1ccccc1NCc1ccncc1,24.8%
2,CC(C)n1cnc2c(Nc3cccc(Cl)c3)nc(NCCO)nc21,93.4%
3,COc1cc2nccc(Oc3ccc(NC(=S)NC(=O)c4ccccc4C)cc3)c2cc1OC,89.8%
4,NC(=O)c1ccc(N(C(N)=O)c2c(F)cccc2F)nc1-c1ccc(F)cc1F,102%
5,O=c1cc(-c2cccc3c2Sc2ccccc2S3)oc(N2CCOCC2)c1,90.8%

# Target: FYN (human) (UniProt P06241)
# Assay: as above
# Settings: compound 0.5 µM; ATP 10 µM
row,SMILES,residual activity
1,O=C(Nc1ccc(Cl)cc1)c1ccccc1NCc1ccncc1,97%
2,CC(C)n1cnc2c(Nc3cccc(Cl)c3)nc(NCCO)nc21,60.4%

# — the kinase profiling compilation of Christmann-Franck et al. (2016)
